Results as given in patent US9434760B2, “Prolinamide derivatives as thrombin inhibitors, preparation method and application thereof” (SHANGHAI INSTITUTE OF PHARMACEUTICAL INDUSTRY, priority 2010, dated 2016).
Where a name gives a salt, the structure may show the parent alone.

These compounds were tested against T1, lyophilized bovine thrombin standard substance purified from bovine blood (Bos taurus, UniProt P00735) (assay: Test for antithrombin activity (chromogenic substrate S2238)). Details: not given.
T1 construct: lyophilized bovine thrombin standard substance purified from bovine blood; from tissue; host or cells: bovine blood
Format: biochemical
From the text: Wherein ΔAs represents the rate of change in inhibited absorbance value, and ΔAc represents the rate of change in uninhibited absorbance values.
Wherein h represents Hill coefficient.

| Compound | IC50 [nM] |
| --- | --- |
| CC(C)CC(NS(=O)(=O)c1ccccc1)C(=O)N1CCC[C@H]1C(=O)NCc1ccc(C(=N)N)cc1 (stereo partly drawn) [Example 2, N-benzenesulfonyl-D,L-leucyl-L-prolyl-[(4-amidinophenyl)methyl]amide acetate] | 115 |
| CC(C)C[C@@H](NS(=O)(=O)Cc1ccccc1)C(=O)N1CCC[C@H]1C(=O)NCc1ccc(C(=N)N)cc1 [Example 21, N-benzylsulfony-D-leucyl-L-prolyl-[(4-amidinophenyl)methyl]amide hydrochloride] | 170 |
| N=C(N)c1ccc(CNC(=O)[C@@H]2CCN2C(=O)[C@H](NCC(=O)O)C2CCCCC2)cc1 [melagatran, reference compound] | 69 |

Same assay, conditions: 0.15 U/ml bovine thrombin, incubation for 15 minutes, substrate S2238 (0.075 μM), absorbance at 405 nm during 4 minutes, room temperature; read-out: IC50

| Compound | IC50 [nM] |
| --- | --- |
| CC[C@H](C)[C@H](NC(=O)c1ccccc1)C(=O)N1CCC[C@H]1C(=O)NCc1ccc(C(=N)N)cc1 (mixture of isomers) [Example 12, N-benzoyl-D,L-isoleucyl-L-prolyl-[(4-amidinophenyl)methyl]amide acetate] | 561 |
| N-benzylsulfonyl-D,L-leucyl-L-prolyl-{[4-(N′-hydroxyl) amidinophenyl]methyl}amide acetate [Example 4] | 47 |
| CC(C)CC(NC(=O)c1ccccc1)C(=O)N1CCC[C@H]1C(=O)NCc1ccc(C(=N)N)cc1 (mixture of isomers) [Example 6, N-benzoyl-D,L-leucyl-L-prolyl-[(4-amidinophenyl)methyl]amide acetate] | 154 |
| CC(C)C[C@@H](NC(=O)c1ccccc1)C(=O)N1CCC[C@H]1C(=O)NCc1ccc(C(=N)N)cc1 [Example 22, N-benzoyl-D-leucyl-L-prolyl-[(4-amidinophenyl)methyl]amide hydrochloride] | 55 |
| CC(C)C[C@@H](NS(=O)(=O)Cc1ccccc1)C(=O)N1CCC[C@H]1C(=O)NCc1ccc(C(=N)NC(=O)OCc2ccccc2)cc1 [Example 20] | 246 |
| N-benzenesulfonyl-D-leucyl-L-prolyl-[1-(aminoiminomethyl)-pyrrol-3-yl]methyl amide hydrochloride [Example 27] | 8 |
| CC(C)C[C@@H](NS(=O)(=O)c1ccccc1)C(=O)N1CCC[C@H]1C(=O)NCc1ccc(C(=N)N)cc1 [Example 19, N-benzenesulfony-D-leucyl-L-prolyl-[(4-amidinophenyl)methyl]amide hydrochloride] | 12 |
| CC(C)C[C@@H](NCC(=O)O)C(=O)N1CCC[C@H]1C(=O)NCc1ccc(C(=N)N)cc1 [Example 24, N-carboxylmethyl-D-leucyl-L-prolyl-[(4-amidinophenyl)methyl]amide hydrochloride] | 561 |
| CC(C)C[C@@H](NC(=O)Cc1ccccc1)C(=O)N1CCC[C@H]1C(=O)NCc1ccc(C(=N)N)cc1 [Example 23, N-phenylacetyl-D-leucyl-L-prolyl-[(4-amidinophenyl)methyl]amide hydrochloride] | 472 |
| CC(C)C[C@@H](NS(=O)(=O)c1ccccc1)C(=O)N1CCC[C@H]1C(=O)NCc1ccc(C(=N)NC(=O)OCc2ccccc2)cc1 [Example 18] | 30 |
